Publication PMC10522709, “Rational design and characterization of cell-selective antimicrobial peptides based on a bioactive peptide from Crocodylus siamensis hemoglobin” (Scientific Reports, 2023)
Like-named read-outs stand apart in the source and are kept apart here. Ends that are not written are not given here.

How the values were obtained:
Assay type in all cases: cell-based
[1] = test system: human keratinocyte cells (HaCaT); conditions: 24 h
Experimental: (§1) Human peripheral blood mononuclear cells (PBMC), African green monkey kidney cells (Vero), human keratinocyte cells (HaCaT) and mouse preadipocytes (3T3-L1) were used to evaluate the cytotoxicity of peptides by the MTT assay. PBMCs were isolated using Ficoll medium (GE Healthcare, Uppsala, Sweden) as described by Jangpromma et al.[28]. The PBMCs were then cultured in RPMI 1640, while Vero, HaCaT and 3T3-L1 cells were cultured in DMEM. All culture mediums were supplemented with 10% heat-inactivated fetal bovine serum (FBS) and 1% antibiotic:antimycotic (Gibco, USA). The cells were cultured at 37 °C with 5% CO2/95% relative humidity. After that, PBMC (2 × 10^6 cells/well), Vero (1 × 10^4 cells/well), HaCaT (1 × 10^4 cells/well) and 3T3-L1 (1 × 10^4 cells/well) were individually seeded into 96-well plate and cultured at 37 °C overnight. Next, two-fold serially diluted peptides (3.13–200 μg/mL) were added to the cell culture. After incubation in 5% (v/v) CO2 incubator for 24 h, the medium culture was removed and MTT solution ([…] final concentration in fresh medium culture) was added to the cells and incubated for 30 min. Thereafter, the medium was removed and DMSO (100 µL) was added to each well to dissolve the formazan crystals. The optical density at 570 nm was determined using a microplate reader (ALLSHENG, Zhejiang, China). The cytotoxicity of IL15.3 against Vero, HaCaT and 3T3-L1 cells in the absence of FBS was also measured by the MTT assay to confirm the peptide is not sequestered by proteins in the serum causing artificially low cytotoxicity against eukaryotic cells.
(§2) Cell viability was determined using the equation: %cellviability=OD570ofsample/OD570ofuntreatedcontrol×100
(§3) GraphPad Prism8 (San Diego, CA, USA) was used to calculate IC50 values using a non-linear regression model.

[2] = test system: human peripheral blood mononuclear cells (PBMC); conditions: 24 h
Experimental: as §1, §2, §3

human erythrocytes = conditions: red cells of human, 1 h
Experimental: Human whole blood was obtained from Blood Transfusion Center Faculty of Medicine Khon Kaen University (ethical approval number HE601010). Fresh human erythrocytes were carefully mixed with PBS (1:3) and centrifuged at 1000 × g for 2 min. The supernatant was discarded and the cell pellet was resuspended to 2% w/v in PBS. 100 µL of the resuspended erythrocytes were incubated with the peptide (10 µL, final concentrations ranging from 12.5 to 100 μg/mL, two-fold serial dilution) at 37 °C for 1 h. After the treatment, the plate was centrifuged and the supernatant was taken to determine the optical density at 415 nm using a microplate reader (ALLSHENG, Zhejiang, China). The positive control for this assay was the addition of Triton X-100 (1% v/v), which causes 100% hemolysis. The negative control was cells treated with PBS buffer only. The hemolysis activity was estimated using the equation: %hemolysis=OD415ofsample/OD415ofTritonX-100treatedcontrol×100

[3] = test system: several bacterial strains; conditions: for MIC, over all strains tested: 18 h
Experimental: (§4) Broth microdilution assays were performed as reported previously. In short, the bacteria including Escherichia coli (ATCC 25922), Klebsiella pneumoniae (ATCC 27736), Pseudomonas aeruginosa (ATCC 27853), Bacillus subtilis (ATCC 6633), Staphylococcus aureus (ATCC 25923) and Staphylococcus epidermidis (ATCC 12228) were grown in Nutrient broth to mid-log phase at 37 °C. The bacterial suspension (50 μL, concentration of 1 × 10^6 CFU/mL) was loaded into a well with serially diluted peptide (50 µL, final concentrations ranging from 0–200 μg/mL) in a sterile 96-well plate and incubated at 37 °C for 18 h. The optical density (OD) at 600 nm was measured using a microplate reader (ALLSHENG, Zhejiang, China) in order to determine the growth of the bacteria. The inhibition was estimated using the formula; %inhibition=OD600ofcontrol-OD600ofsample/OD600ofcontrol-OD600ofblank×100 where minimal inhibitory concentration (MIC) is defined as the minimum concentration that inhibited 90% of bacterial growth.

[4] = test system: Klebsiella pneumoniae (ATCC 27736); conditions: ATCC 27736, 18 h
Experimental: as §4

[5] = test system: Staphylococcus aureus (ATCC 25923); conditions: ATCC 25923, 18 h
Experimental: as §4

[6] = test system: Escherichia coli (ATCC 25922); conditions: ATCC 25922, 18 h
Experimental: as §4

[7] = test system: Staphylococcus epidermidis (ATCC 12228); conditions: ATCC 12228, 18 h
Experimental: as §4

[8] = test system: Pseudomonas aeruginosa (ATCC 27853); conditions: ATCC 27853, 18 h
Experimental: as §4

[9] = test system: Bacillus subtilis (ATCC 6633); conditions: ATCC 6633, 18 h
Experimental: as §4

[10] = test system: Klebsiella pneumoniae (ATCC 27736); conditions: ATCC 27736, 24 h
Experimental: as §4
(§5) In order to evaluate the minimal bactericidal concentration (MBC)—the lowest concentration that terminates the growth of bacteria on an agar plate—of the peptide, co-culture medium (100 μL) from each well after the microdilution assay was spread on a nutrient agar plate. Plates were maintained at 37 °C for 24 h and the number of colonies formed was counted to evaluate antimicrobial activity.

[11] = test system: Staphylococcus aureus (ATCC 25923); conditions: ATCC 25923, 24 h
Experimental: as §4, §5

[12] = test system: Escherichia coli (ATCC 25922); conditions: ATCC 25922, 24 h
Experimental: as §4, §5

[13] = test system: Staphylococcus epidermidis (ATCC 12228); conditions: ATCC 12228, 24 h
Experimental: as §4, §5

[14] = test system: Pseudomonas aeruginosa (ATCC 27853); conditions: ATCC 27853, 24 h
Experimental: as §4, §5

[15] = test system: Bacillus subtilis (ATCC 6633); conditions: ATCC 6633, 24 h
Experimental: as §4, §5

| Sequence | IC50 HaCaT [1] [µg/mL] | IC50 PBMC [2] [µg/mL] | Hemolysis concentration50 (HC50) (human erythrocytes) [µg/mL] | MIC, over all strains tested [3] [µg/mL] | MIC [4] [µg/mL] | MIC [5] [µg/mL] | MIC [6] [µg/mL] | MIC [7] [µg/mL] | MIC [8] [µg/mL] | MIC [9] [µg/mL] | MBC [10] [µg/mL] | MBC [11] [µg/mL] | MBC [12] [µg/mL] | MBC [13] [µg/mL] | MBC [14] [µg/mL] | MBC [15] [µg/mL] | increase of SI in comparison with IL15.2 ([3]; towards gram-negative bacteria) | increase of SI in comparison with IL15.2 ([3]; towards gram-positive bacteria) [fold] |
| --- | --- | --- | --- | --- | --- | --- | --- | --- | --- | --- | --- | --- | --- | --- | --- | --- | --- | --- |
| IIHNEKVQAHGKKVL [IL15] | >200 | >200 | >2000 | > 200 | > 200 | > 200 | > 200 | > 200 | > 200 | > 200 | > 200 | > 200 | > 200 | > 200 | > 200 | > 200 |  |  |
| IKHWEKVWKHGKKVL [IL15.1] | >200 | >200 | >2000 | > 200 | > 200 | > 200 | > 200 | > 200 | > 200 | > 200 | > 200 | > 200 | > 200 | > 200 | > 200 | > 200 |  |  |
| IKHWKKVWKHGKKVL [IL15.2] | >200 | >200 | >2000 |  | > 200 | > 200 | 100 | > 200 | > 200 | 50 | > 200 | > 200 | 150 | > 200 | > 200 | 60 |  |  |
| IKHWKKVWKHWKKKL [IL15.4] | >200 | >200 | >2000 |  | 14 | 12 | 4 | 9 | 10 | 6 | 50 | 25 | 6 | 12 | 14 | 10 | approximately 6 fold | ~25 |
| IRHWRRVWRHWRRRL [IL15.5] | 200 | 113 | 896 | 8 to 75 | 75 | 25 | 15 | 12 | 35 | 8 | 100 | 50 | 25 | 15 | 50 | 12 |  |  |
| QAIIHNEKVQAHGKKVL [QL17] | >200 | >200 | >2000 | > 200 | > 200 | > 200 | > 200 | > 200 | > 200 | > 200 | > 200 | > 200 | > 200 | > 200 | > 200 | > 200 |  |  |
